Test results published in ChEMBL document CHEMBL5465560, “Selectivity Literature for EUbOPEN Chemogenomic Library” (2024).

Columns and labels:
[1] = target: T1, Aurora kinase C (Homo sapiens) (UniProt Q9UQB9); conditions: at 10 µM
T1 sequence (whole entry): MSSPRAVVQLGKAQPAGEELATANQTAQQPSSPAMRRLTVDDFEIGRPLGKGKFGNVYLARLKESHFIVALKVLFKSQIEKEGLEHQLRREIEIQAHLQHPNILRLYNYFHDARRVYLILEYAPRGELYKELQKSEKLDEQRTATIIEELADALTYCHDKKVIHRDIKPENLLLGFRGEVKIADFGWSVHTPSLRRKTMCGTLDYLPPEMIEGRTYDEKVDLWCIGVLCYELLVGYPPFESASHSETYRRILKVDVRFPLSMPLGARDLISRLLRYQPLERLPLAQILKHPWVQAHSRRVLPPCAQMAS

[2] = target: Tyrosine-protein kinase Fes/Fps (Homo sapiens) (UniProt P07332); assay: Selectivity interaction (KinomeScan (DiscoverX)) EUB0000666a FES; conditions: at 10 µM
Tyrosine-protein kinase Fes/Fps (Homo sapiens), sequence (P07332 whole entry): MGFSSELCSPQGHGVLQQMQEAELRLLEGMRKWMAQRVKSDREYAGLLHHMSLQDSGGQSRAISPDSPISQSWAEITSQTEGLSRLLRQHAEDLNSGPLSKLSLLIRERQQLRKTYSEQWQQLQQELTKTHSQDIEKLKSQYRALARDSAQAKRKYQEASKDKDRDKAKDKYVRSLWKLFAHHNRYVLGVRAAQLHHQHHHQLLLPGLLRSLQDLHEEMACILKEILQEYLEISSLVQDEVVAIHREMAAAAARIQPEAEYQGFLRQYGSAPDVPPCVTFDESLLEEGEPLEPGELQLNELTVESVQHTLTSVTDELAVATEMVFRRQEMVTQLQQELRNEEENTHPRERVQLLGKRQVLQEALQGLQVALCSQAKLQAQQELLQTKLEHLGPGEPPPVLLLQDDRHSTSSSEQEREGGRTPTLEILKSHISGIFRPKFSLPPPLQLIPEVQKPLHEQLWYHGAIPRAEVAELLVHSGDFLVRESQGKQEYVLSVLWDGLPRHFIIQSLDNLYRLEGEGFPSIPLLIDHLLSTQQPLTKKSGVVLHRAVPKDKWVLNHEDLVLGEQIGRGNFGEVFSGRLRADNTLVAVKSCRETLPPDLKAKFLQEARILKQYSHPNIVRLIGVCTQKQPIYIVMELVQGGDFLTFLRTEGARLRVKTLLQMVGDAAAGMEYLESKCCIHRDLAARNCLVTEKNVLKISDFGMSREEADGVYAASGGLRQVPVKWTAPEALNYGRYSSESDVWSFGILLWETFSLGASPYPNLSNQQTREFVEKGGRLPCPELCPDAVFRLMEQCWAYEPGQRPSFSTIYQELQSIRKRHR

[3] = Selectivity interaction (KinomeScan (DiscoverX)) EUB0000666a PKNB; conditions: at 10 µM
[4] = target: Casein kinase II subunit alpha' (Homo sapiens) (UniProt P19784); conditions: at 10 µM
Casein kinase II subunit alpha' (Homo sapiens), sequence (P19784 whole entry, looked up): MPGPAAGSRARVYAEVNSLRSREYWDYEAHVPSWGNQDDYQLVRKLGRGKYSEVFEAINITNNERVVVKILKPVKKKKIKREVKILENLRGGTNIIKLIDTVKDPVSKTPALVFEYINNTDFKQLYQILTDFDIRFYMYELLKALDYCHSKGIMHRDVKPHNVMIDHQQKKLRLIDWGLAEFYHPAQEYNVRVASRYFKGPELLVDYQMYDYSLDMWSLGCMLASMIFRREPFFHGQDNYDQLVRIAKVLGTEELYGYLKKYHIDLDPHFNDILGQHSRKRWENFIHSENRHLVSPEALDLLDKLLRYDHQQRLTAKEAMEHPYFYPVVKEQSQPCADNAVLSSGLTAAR

D(2) dopamine receptor = D(2) dopamine receptor (Homo sapiens, UniProt P14416); assay: Selectivity interaction (Panel of non-epigenetic targets (kinases, GPCRs, ion channels, and transporters, Eurofins) ) EUB0000271b DRD2; conditions: at 1 µM
D(2) dopamine receptor, sequence (P14416 whole entry): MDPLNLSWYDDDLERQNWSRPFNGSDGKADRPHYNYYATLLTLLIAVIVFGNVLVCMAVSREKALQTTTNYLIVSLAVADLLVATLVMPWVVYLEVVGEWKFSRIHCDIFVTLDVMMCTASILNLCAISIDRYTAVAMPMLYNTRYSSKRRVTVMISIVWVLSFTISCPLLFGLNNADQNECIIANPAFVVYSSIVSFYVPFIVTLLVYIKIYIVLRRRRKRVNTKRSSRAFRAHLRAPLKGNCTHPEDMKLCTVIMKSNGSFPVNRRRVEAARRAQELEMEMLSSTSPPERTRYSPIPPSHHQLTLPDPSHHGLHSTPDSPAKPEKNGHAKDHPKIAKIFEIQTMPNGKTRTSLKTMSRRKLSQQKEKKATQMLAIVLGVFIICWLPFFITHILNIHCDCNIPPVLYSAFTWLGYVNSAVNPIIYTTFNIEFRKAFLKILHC

[5] = target: Phosphatidylinositol 4-kinase beta (Homo sapiens, UniProt Q9UBF8); assay: Selectivity interaction (KinomeScan (DiscoverX)) EUB0001049a PI4KB; conditions: at 1 µM
Phosphatidylinositol 4-kinase beta, sequence (Q9UBF8 2-816 limits assumed): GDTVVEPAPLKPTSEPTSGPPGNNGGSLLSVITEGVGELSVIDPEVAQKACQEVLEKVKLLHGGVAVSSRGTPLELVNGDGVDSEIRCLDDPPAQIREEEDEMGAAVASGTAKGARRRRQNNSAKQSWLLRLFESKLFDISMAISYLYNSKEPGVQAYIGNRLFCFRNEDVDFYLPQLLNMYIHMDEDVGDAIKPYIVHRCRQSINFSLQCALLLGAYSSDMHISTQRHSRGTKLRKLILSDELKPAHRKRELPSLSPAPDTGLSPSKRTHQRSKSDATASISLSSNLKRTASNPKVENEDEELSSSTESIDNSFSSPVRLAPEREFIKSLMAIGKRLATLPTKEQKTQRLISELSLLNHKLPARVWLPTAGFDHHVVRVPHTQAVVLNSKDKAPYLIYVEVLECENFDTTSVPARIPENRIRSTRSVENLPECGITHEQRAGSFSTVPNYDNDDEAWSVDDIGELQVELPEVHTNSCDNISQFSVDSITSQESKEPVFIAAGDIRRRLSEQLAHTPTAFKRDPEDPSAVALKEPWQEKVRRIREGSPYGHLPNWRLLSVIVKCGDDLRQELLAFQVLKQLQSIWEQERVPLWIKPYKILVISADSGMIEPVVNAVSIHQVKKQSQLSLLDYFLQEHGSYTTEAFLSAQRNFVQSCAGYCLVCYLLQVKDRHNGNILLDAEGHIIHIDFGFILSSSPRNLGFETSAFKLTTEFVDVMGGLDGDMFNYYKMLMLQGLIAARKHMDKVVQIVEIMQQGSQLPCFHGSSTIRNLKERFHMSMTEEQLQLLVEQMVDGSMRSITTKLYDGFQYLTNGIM

[6] = target: T2, Ephrin type-A receptor 8 (Homo sapiens) (UniProt P29322); assay: Selectivity interaction (ProQinase) EUB0000171b EPHA8
T2 sequence (whole entry): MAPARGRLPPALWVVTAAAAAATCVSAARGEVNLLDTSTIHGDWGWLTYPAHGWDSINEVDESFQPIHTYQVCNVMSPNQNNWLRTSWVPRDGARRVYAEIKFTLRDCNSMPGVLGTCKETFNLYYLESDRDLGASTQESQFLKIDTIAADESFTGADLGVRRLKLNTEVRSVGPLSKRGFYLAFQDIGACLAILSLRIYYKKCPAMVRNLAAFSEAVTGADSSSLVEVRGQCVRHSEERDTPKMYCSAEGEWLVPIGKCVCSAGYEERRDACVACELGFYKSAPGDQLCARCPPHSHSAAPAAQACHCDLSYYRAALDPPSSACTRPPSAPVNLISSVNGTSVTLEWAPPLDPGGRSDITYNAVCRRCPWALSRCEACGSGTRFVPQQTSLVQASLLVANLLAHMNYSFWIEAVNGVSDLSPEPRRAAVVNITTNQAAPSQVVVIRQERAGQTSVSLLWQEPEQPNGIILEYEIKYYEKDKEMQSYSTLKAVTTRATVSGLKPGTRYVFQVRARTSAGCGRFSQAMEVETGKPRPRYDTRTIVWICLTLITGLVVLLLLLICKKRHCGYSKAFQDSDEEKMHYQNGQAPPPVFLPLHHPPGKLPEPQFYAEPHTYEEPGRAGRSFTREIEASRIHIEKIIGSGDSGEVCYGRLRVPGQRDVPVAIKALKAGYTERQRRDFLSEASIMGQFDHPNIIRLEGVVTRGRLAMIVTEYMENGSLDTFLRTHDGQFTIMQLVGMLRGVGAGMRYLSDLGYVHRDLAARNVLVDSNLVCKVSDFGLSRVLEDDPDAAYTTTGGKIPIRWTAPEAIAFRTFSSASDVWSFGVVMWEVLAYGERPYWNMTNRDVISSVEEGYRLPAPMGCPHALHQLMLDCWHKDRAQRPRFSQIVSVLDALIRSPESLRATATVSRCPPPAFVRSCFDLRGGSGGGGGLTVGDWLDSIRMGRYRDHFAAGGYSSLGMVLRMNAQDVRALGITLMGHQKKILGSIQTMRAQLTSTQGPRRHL

[7] = target: T3, Mitogen-activated protein kinase kinase kinase 2 (Homo sapiens) (UniProt Q9Y2U5); assay: Selectivity interaction (ActivX KiNativ screen (ex vivo kinase selectivity in human PBMCs)) EUB0001619a MAP3K2; format: cell-based; conditions: PBMC, at 1 µM
T3 sequence (whole entry): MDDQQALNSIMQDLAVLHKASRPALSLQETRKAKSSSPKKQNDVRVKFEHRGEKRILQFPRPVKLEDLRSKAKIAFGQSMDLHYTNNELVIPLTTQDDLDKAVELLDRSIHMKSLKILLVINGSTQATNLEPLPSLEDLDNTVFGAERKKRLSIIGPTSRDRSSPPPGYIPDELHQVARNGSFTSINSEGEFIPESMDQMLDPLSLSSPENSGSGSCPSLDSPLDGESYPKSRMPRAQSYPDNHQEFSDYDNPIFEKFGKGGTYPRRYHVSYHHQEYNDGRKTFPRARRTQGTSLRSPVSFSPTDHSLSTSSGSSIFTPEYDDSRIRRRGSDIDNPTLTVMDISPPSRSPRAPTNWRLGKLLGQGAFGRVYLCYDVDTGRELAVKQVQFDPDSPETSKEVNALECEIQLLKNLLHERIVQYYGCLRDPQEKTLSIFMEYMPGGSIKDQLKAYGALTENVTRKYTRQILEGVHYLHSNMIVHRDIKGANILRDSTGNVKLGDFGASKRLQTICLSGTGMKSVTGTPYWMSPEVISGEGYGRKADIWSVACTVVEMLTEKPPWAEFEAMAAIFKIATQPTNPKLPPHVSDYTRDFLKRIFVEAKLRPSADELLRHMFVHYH

[8] = target: Serine/threonine-protein kinase 25 (Homo sapiens) (UniProt O00506); assay: Selectivity interaction (KinomeScan (DiscoverX)) EUB0000607a STK25; conditions: at 10 µM
Serine/threonine-protein kinase 25 (Homo sapiens), sequence (O00506 whole entry, looked up): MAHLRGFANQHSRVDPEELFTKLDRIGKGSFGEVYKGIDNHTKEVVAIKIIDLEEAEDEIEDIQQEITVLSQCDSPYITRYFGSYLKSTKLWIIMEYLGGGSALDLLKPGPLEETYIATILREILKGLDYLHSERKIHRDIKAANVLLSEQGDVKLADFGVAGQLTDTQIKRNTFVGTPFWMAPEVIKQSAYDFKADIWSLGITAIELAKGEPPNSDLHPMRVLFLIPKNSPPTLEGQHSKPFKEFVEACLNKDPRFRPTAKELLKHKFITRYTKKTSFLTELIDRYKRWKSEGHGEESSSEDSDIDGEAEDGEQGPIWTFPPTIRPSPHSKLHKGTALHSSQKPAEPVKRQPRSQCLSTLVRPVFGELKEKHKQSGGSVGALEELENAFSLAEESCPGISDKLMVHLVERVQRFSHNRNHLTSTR

[9] = target: Tyrosine-protein kinase Lck (Homo sapiens, UniProt P06239); assay: Selectivity interaction (KinomeScan (DiscoverX)) EUB0000618a LCK; conditions: at 10 µM
Tyrosine-protein kinase Lck, sequence (P06239 2-509 limits assumed): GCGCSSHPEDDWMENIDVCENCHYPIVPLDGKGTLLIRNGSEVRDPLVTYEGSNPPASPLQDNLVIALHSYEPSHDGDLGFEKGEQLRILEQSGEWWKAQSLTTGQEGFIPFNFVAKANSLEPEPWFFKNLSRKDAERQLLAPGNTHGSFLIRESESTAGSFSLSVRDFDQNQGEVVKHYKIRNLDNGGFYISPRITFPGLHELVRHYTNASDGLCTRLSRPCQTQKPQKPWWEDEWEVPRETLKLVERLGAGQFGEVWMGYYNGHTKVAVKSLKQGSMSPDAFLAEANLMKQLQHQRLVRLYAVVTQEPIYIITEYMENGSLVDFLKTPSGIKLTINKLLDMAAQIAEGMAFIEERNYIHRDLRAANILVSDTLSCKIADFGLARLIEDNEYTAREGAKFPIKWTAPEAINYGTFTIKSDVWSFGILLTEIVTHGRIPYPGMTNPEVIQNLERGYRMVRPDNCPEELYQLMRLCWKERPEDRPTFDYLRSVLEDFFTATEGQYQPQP

[10] = target: 5'-AMP-activated protein kinase catalytic subunit alpha-1 (Homo sapiens, UniProt Q13131); conditions: at 10 µM
5'-AMP-activated protein kinase catalytic subunit alpha-1, sequence (Q13131 whole entry, looked up): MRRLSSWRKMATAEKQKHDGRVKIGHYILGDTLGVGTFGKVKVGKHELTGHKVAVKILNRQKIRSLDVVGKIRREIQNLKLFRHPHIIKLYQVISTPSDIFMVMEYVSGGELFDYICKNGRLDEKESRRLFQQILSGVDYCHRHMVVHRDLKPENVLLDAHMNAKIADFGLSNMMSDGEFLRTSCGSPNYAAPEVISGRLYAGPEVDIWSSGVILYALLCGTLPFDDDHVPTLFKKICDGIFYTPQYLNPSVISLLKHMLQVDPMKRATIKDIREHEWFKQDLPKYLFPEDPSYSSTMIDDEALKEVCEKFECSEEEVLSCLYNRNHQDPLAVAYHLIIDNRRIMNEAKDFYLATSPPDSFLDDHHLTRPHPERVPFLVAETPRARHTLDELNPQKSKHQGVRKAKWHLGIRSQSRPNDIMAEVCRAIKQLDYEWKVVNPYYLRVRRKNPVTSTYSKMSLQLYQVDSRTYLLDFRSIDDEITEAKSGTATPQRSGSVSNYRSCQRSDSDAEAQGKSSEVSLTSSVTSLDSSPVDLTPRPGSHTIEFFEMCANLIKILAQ

COCC(=O)NC/C=C/c1ccc2ncnc(Nc3ccc(Oc4ccc(C)nc4)c(C)c3)c2c1 [CP-724714]
% of control [1]: 67%

O=C(NOC[C@H](O)CO)c1ccc(F)c(F)c1Nc1ccc(I)cc1F
% of control [2]: 100%
% of control [3]: 91%

Cc1cc([C@@H](C)Nc2ccccc2C(=O)O)c2nc(N3CCOCC3)cc(=O)n2c1 [AZD-6482]
% of control [4]: 100%

Cc1cc(C)cc([C@@H]2c3cc(C)ccc3NC(=O)CN2C(=O)c2ccc(Br)s2)c1
% of inhibition (D(2) dopamine receptor): -1%

COc1cc(Nc2nc(C)cc(-c3cnn4nc(OC)ccc34)n2)cc(C(F)(F)F)c1
% of control [5]: 85%

C=CC(=O)Nc1cccc(C(=O)Nc2ccc(Nc3cc(-c4[nH]c(SC)nc4C)ccn3)cc2)c1
% of control ([6]; at 1 µM): 96%
% of control ([6]; at 5 µM): 99%

N#Cc1cccc(-c2c[nH]c3ncnc(N4CCOCC4)c23)c1
% of inhibition [7]: 15%

CNC(=O)Nc1ccc(-c2nc(N3CC4CCC(C3)O4)c3cnn(C4CCC5(CC4)OCCO5)c3n2)cc1
% of control [8]: 91%

O[C@H]1CC[C@H](Nc2ncc3nc(Nc4c(F)cc(F)cc4F)n([C@H]4CCOC4)c3n2)CC1
% of control [9]: 57%

CCN(CC)CCCCNc1ncc2cc(-c3cc(OC)cc(OC)c3)c(NC(=O)NC(C)(C)C)nc2n1
% of control [10]: 100%
